Data taken from patent US10918727B2, “Peptide with ability to penetrate cell membrane” (ICURE BNP CO., LTD., priority 2016, dated 2021).
Non-standard residues stand in square brackets, D forms with d. No end group written: not given here.

What was measured:
[1] = tested on: human bronchial epithelial cell line BEAS-2B; test: Cell membrane penetration of FITC-labeled L-/D-form TCTP-PTD 13 by flow cytometry; type: cell-based; conditions: BEAS-2B cells, 2.5 μM FITC-labeled peptide, 30 minutes
Description: The human bronchial epithelial cell line BEAS-2B was prepared, and the cell membrane penetration ability of the TCTP-PTD peptide according to the amino acid type was analyzed by flow cytometry. Specifically, BEAS-2B cells were seeded on a 6-well plate at a density of 8×10^5 cells/well, and then cultured in cell culture medium (BEGM) for 24 hours. After 24 hours of cell culture, each well was washed twice with PBS, and then each well was treated with FITC-labeled L-form TCTP-PTD 13 (hereinafter referred to as L-PTD 13; SEQ ID NO: 27) or FITC-labeled D-form TCTP-PTD 13 (hereinafter referred to as D-PTD 13; SEQ ID NO: 27) diluted in cell culture medium such that the concentration of each TCTP-PTD would be 2.5 μM. 30 minutes after the cells were treated with the two kinds of TCTP-PTD 13, the cells were isolated from each well by use of 0.25% trypsin, and then washed 6 times with cold PBS to remove TCTP-PTD from the cell surface.

[2] = tested on: hair follicle and dermis of the skin (male BALB/c mice); test: Hair follicle penetration of FITC-labeled TCTP-PTD after transdermal administration (fluorescence microscopy); type: in vivo, mouse; conditions: 100 μl of 100 μM FITC-labeled peptide on 1 cm^2, 2 hours
Description: (§1) Male BALB/c mice (7-8-week-old) were prepared, and the abdominal region of the mice was shaved. Next, the mice were anesthetized by intraperitoneal injection of urethane (1.2-1.5 g/kg), and then 100 μl of each TCTP-PTD peptide solution was applied to the abdominal region of each mouse so as to be administered transdermally. Each of the peptide solutions was applied to an area of 1 cm^2.
2 hours after transdermal administration, the skin tissue was collected, fixed with 10% formalin for about 24 hours, and then treated with 30% sucrose solution for 4 hours. The pretreated skin tissue was immersed in OCT-compound, and then treated with liquid nitrogen to prepare a frozen block. The skin tissue was sectioned to a thickness of 20 μm by use of a cryotome and attached to a slide. The slide having the skin tissue attached thereto was washed five times with PBS, and then the nucleus was stained with DAPI (blue fluorescence).
The amino terminus of L-PTD 13 or D-PTD 13 was labeled with FITC (green fluorescence), and then each PTD peptide was dissolved in PBS (phosphate buffered saline, pH 7.4) to a final concentration of 100 μM.
as §1, with “of the FITC-labeled L-PTD 13 or D-PTD 13” for “TCTP-PTD peptide”

[3] = Body weight-reducing effect of intranasal TCTP-PTD 13-[D-Leu-4]-OB3; type: in vivo, mouse; conditions: for body weight after 10 days compared with PBS or OB3 / rate of increase in body weight for 10 days compared with PBS or OB3: ICR mice, intranasal 2 mg/kg once each day for 10 days
Text: A peptide (SEQ ID NO: 124) comprising [D-Leu-4]-OB3 linked to L-PTD 13 or D-PTD 13 by a GG linker was designed. Furthermore, peptides (SEQ ID NO: 125, SEQ ID NO: 126 and SEQ ID NO: 127, respectively) comprising [D-Leu-4]-OB3 linked to each of D-TCTP-PTD 13M1, D-TCTP-PTD 13M2 or D-TCTP-PTD 13M3 by a GG linker were designed. The peptides were synthesized with a purity of 90% or higher by Peptron Inc.
4-week-old male ICR mice were used as experimental animals and divided into the following groups, each consisting of 7 animals: PBS, [D-Leu-4]-OB3, L-PTD 134D-Leu-41-OB3, and D-PTD 134D-Leu-41-OB3 groups. Each of [D-Leu-4]-OB3, L-PTD 134D-Leu-41-OB3 and D-PTD 13-[D-Leu-4]-OB3 was administered intranasally to each mouse at a dose of 2 mg/kg once each day for 10 days at a uniform time point, while a change in the body weight of each of the experimental animals was measured.

[4] = Appetite-inhibiting effect (food intake) of intranasal TCTP-PTD 13-[D-Leu-4]-OB3; type: in vivo, mouse; conditions: ICR mice, intranasal 2 mg/kg; for cumulative food intake compared with PBS: measured every day for 10 days
Description: In order to examine whether or not the body weight-reducing effect confirmed in Example 7-2 has a connection with a decrease in food intake, PBS, [D-Leu-4]-OB3, L-PTD 13-[D-Leu-4]-OB3 or D-PTD 13-[D-Leu-4]-OB3 was administered intranasally at a dose of 2 mg/kg, and the food intake was measured everyday for 10 days.

[5] = tested on: type 2 diabetic model mice (db/db mice); test: Blood glucose-lowering effect of intranasal TCTP-PTD/Ex-4 mixture in type 2 diabetic model mice after i.p. glucose; type: in vivo, mouse; conditions: Ex-4 10 μg/kg, 10 μM Ex-4 + 20 μM peptide, glucose 2.5 g/kg i.p., monitored 240 minutes
Description: Male db/db mice weighing 31-34 g were used as experimental animals. The mice were fasted overnight, and then the blood glucose level in the mice were measured using a blood glucose meter.
20 minutes after anesthesia, each of the prepared Ex-4/TCTP-PTD mixtures was administered intranasally to the mice (Ex-4 dose: 10 μg/kg), and a control group was administered intranasally with the same amount of Ex-4, and a negative control group was administered intranasally with the same amount of PBS. After 15 minutes, glucose (2.5 g/kg) was injected intraperitoneally to the mice, and the blood glucose level in the mice was monitored for 240 minutes.

[6] = tested on: cervical cancer cell line HeLa; test: Cell membrane penetration of FITC-labeled TCTP-PTD peptides in HeLa cells (fluorescence reader); type: cell-based; conditions: 10 μM FITC-labeled peptide, 15 minutes
Description: The cervical cancer cell line HeLa was prepared. To detect TCTP-PTD accumulated in cells after passage through the cell membrane, the N-terminus of the synthesized peptide was labeled with FITC (fluorescein isothicyanate). Then, the cervical cancer cell line Hela was treated with 10 μM of the FITC-labeled TCTP-PTD of SEQ ID NO: 18, SEQ ID NO: 22, SEQ ID NO: 24 or SEQ ID NO: 27 for 15 minutes. After completion of the incubation, the cells were washed three times with PBS to remove FITC-TCTP-PTD remaining on the cell membrane of the HeLa cells. 500 μl of PBS was added, and then the fluorescence intensity of the FITC was measured with a fluorescence reader at 495 nm and 517 nm.

[7] = Pharmacokinetic profile of nasal insulin formulations (plasma insulin); conditions: rats
[8] = Plasma insulin concentration after intranasal administration of insulin/TCTP-PTD mixtures (ELISA); conditions: rats, insulin 0.5 IU/kg, 50 μM insulin + 100 μM peptide, peptides compared with SEQ ID NO: 27
Text: Male Wistar rats weighing 180-190 g were used as experimental animals and anesthetized in the same manner as described above.

[9] = tested on: type 1 diabetic white rats (alloxan-induced); test: Pharmacodynamic profile of nasal insulin formulations in type 1 diabetic (alloxan) rats; type: in vivo, rat; conditions: type 1 diabetic rats
Description: Alloxan was injected intraperitoneally to experimental white rats to induce type 1 diabetes. One week after alloxan administration, white rats having a blood glucose level of 230-300 mg/dL were used as experimental animals.

[10] = tested on: type 1 diabetic model mice (STZ-induced male ICR mice); test: Blood glucose-lowering effect of intranasal TCTP-PTD/insulin mixture in type 1 diabetic model mice; type: in vivo, mouse; conditions: insulin 2 IU/kg, insulin:peptide 1:2, monitored 240 minutes
Description: Streptozotocin (STZ) was injected intraperitoneally into male ICR mice (body weight: 33-34.5 g) four times (doses: 100, 50, 50 and 50 mg/kg) at 2-day intervals to induce type 1 diabetes. At 7 days after last administration of STZ, mice having a blood glucose level of 300-350 mg/dL were selected as experimental animals.

[11] = tested on: normal male white Wistar rats; test: Pharmacodynamic profile of nasal insulin formulations in normal white rats (blood glucose); type: in vivo, rat; conditions: subcutaneous
Description: After design of the nasal insulin formulations, evaluation of the pharmacodynamic profile of each nasal insulin formulation was performed in normal white rats. Specifically, male white Wistar rats weighing 165-200 g were used as experimental animals. For accuracy of evaluation, the […] were fasted overnight, and then white rats having a blood glucose level of 90-120 mg/dL in the fasted state were used in the experiment. To calculate PA (pharmacological availability), the initial blood glucose level was taken as 100%. To administer the nasal insulation formulations, the mice were anesthetized by intraperitoneal administration of the anesthetic sodium pentobarbital (dose: 65 mg/kg).

[12] = tested on: nasal mucosal membrane (female BALB/c mice); test: Penetration of OVA into nasal mucosal epithelial cells after intranasal OVA/TCTP-PTD 13 mixture (immunofluorescence); type: in vivo, mouse; conditions: intranasal 10 μl, OVA 10 μM (4.5 μg), OVA:PTD 1:30, 15 minutes
Description: First, OVA and L-PTD 13 or D-PTD 13 were dissolved in PBS (phosphate buffered saline, pH 7.4) such that the concentrations of OVA and TCTP-PTD would be 10 μM and 300 μM, respectively, thereby preparing mixtures. Herein, OVA and TCTP-PTD were mixed at a molar ratio of 1:30.
Female BALB/c mice (6-8-week-old) were anesthetized by intraperitoneal injection of 50 mg/kg of zoletil and 10 mg/kg of xylazine.
10 μl of OVA, the OVA/D-PTD 13 mixture or the OVA/L-PTD 13 mixture was administered intranasally to each of the anesthetized mice. A control group was administered with 4.5 μg of OVA alone.
15 minutes after intranasal administration, the nasal tissue was collected. The collected nasal tissue was fixed with 10% formalin for about 24 hours, and then decalcified using 4 M formic acid at 4° C. for 30 hours. After decalcification, the nasal tissue was embedded in paraffin according to a conventional method, sectioned to a thickness of 5 μm, and attached to a slide. […] After incubation with the primary antibody, the slide was washed with PBS, and then incubated with a 1:100 dilution of secondary antibody (green fluorescence; Alexa 488-conjugated secondary antibodies, Invitrogen) at room temperature for 1 hour. The slide was washed with PBS, and then the nucleus was stained with DAPI (blue fluorescence), followed by observation with a fluorescence microscope.

With “L-PTD 13: L-form TCTP-PTD 13; SEQ ID NO: 27 (MIIFRALISHKK; PTD #27)” the “ability to penetrate the cell membrane (flow cytometry)” value [1] was “excellent ability to penetrate the cell membrane” and the “penetration to hair follicle and dermis of the skin” value (“penetration … of the skin” below) [2] was “reached the hair follicle and dermis of the skin”.
For “D-PTD 13: D-form TCTP-PTD 13; SEQ ID NO: 27 ([dM][dI][dI][dF][dR][dA][dL][dI][dS][dH][dK][dK])”, the “ability to penetrate the cell membrane (flow cytometry)” value [1] was “excellent ability to penetrate the cell membrane”, the “penetration … of the skin” value [2] was “reached the hair follicle and dermis of the skin” and the “body weight-reducing and appetite-inhibiting effects, D-form vs L-form” value ([3]; peptide linked to [D-Leu-4]-OB3, intranasal 2 mg/kg, 10 days, results of Examples 7-2 and 7-3 together) was “better effects than L-PTD 13”.
For “L-PTD 13-[D-Leu-4]-OB3: peptide (SEQ ID NO: 124) comprising [D-Leu-4]-OB3 linked to L-PTD 13 by a GG linker (MIIFRALISHKKGGSCS[dL]PQT)”, the “total food intake after 10 days of administration” value [4] was “decreased”, the “cumulative food intake compared with PBS” value [4] was “decreased continuously” and the “body weight after 10 days compared with PBS or OB3” value [3] was “decreased”. The “rate of increase in body weight for 10 days compared with PBS or OB3” value [3] was “lower”.
With “SEQ ID NO: 1: variant TCTP-PTD peptide (LIIFRALISHKK; PTD #1)” the “penetration … of the skin” value [2] was “reached the hair follicle and dermis of the skin”.
For “SEQ ID NO: 12: variant TCTP-PTD peptide (MIIFRLAAYHKK; PTD #12)”, the “penetration … of the skin” value [2] was “reached the hair follicle and dermis of the skin”.
With “D-PTD 13-[D-Leu-4]-OB3: peptide (SEQ ID NO: 124) comprising [D-Leu-4]-OB3 linked to D-PTD 13 by a GG linker ([dM][dI][dI][dF][dR][dA][dL][dI][dS][dH][dK][dK]GGSCS[dL]PQT)” the “total food intake after 10 days of administration” value [4] was “decreased”, the “cumulative food intake compared with PBS” value [4] was “decreased continuously” and the “body weight after 10 days compared with PBS or OB3” value [3] was “decreased”. The “rate of increase in body weight for 10 days compared with PBS or OB3” value [3] was “lower”.
With “SEQ ID NO: 27: TCTP-PTD peptide of Korean Patent No. 10-0859972, basis of the variants (MIIFRALISHKK; PTD #27)” the “blood glucose level after i.p. glucose / blood glucose-lowering effect” value [5] was “increase the blood glucose-lowering effect of Ex-4” and the “fluorescence of FITC-labeled peptide in cells (cell membrane penetration)” value [6] was “high level of fluorescence”.
With “SEQ ID NO: 17: variant TCTP-PTD peptide (MIIFRIAAYPKK; PTD #17)” the “penetration … of the skin” value [2] was “reached the hair follicle and dermis of the skin”.
With insulin the “BA % (relative bioavailability vs s.c. insulin)” value ([7]; nasal, insulin 5 IU/kg, listed as Free insulin) was 3.34 ± 0.38%, the BA % ([7]; subcutaneous, insulin 0.25 IU/kg (reference)) was 100% and the “blood insulin concentration / insulin uptake” value [8] was “little or no change in the blood insulin concentration”. The “AAC 0-240 min (area above the blood glucose level-time curve)” value ([9]; nasal, insulin 2 IU/kg) was 2156.65 ± 1070.68, the “AAC 0-240 min (area above the blood glucose level-time curve)” value ([9]; subcutaneous, insulin 1 IU/kg) was 26897.33 ± 772.31 and the PA % ([9]; subcutaneous, insulin 1 IU/kg (reference)) was 100%. For the same substance, the “change in blood glucose level” value [10] was “no significant change in the blood glucose level”, the “AAC 0-180 min (area above the blood glucose level-time curve)” value ([11]; insulin 0.5 IU/kg) was 2560 and the “PA % (pharmacological availability)” value ([11]; insulin 0.5 IU/kg (reference)) was 100%.
In the case of “ovalbumin [OVA (ovalbumin), 45 kDa, model antigen for vaccination]”, the “OVA fluorescence inside the nasal mucosal membrane” value [12] is reported as “not substantially observed inside the nasal mucosal membrane”.
